# Assay results from patent publication US10485845B2, “Neuronal pain pathway” (THE TRUSTEES OF COLUMBIA UNIVERSITY IN THE CITY OF NEW YORK, priority 2005, dated 2019).
# “Also recorded” adds a separate entry of the source.
# Tests used:
# rats = conditions: intrathecal, 10 and 60 minutes later; cited from earlier work
# PKG [1] = conditions: see Setyawan et al., 1999; read-out: inhibitory of PKG at concentration of; cited from earlier work
# Aplysia SNs [2] = experiment: Induction of LTH in axotomized SNs in vitro (electrophysiology); type: cell-based, Aplysia californica; conditions: for decrease in spike threshold / increase in repetitive firing: 10 μM, SNs grown in presence of inhibitor, third day in vitro
# Experimental: FIG. 6A-D. Inhibiting NOS, sGC, or apPKG prevents the induction of LTH in SNs in vitro. SNs were removed from the cluster and grown in vitro in the presence of Rp-8-pCPT-cGMPS (RpcGMPS), Rp-8-pCPT-cAMPS (RpcAMPS), or ODQ (all 10 μM). Other SNs removed at the same time were not exposed to any inhibitors as controls (C). A, B, On the third day in vitro, 12 SNs exposed to Rp-cGMPS, Rp-cAMPS, or ODQ, and 12 control SNs were impaled with a microelectrode to assess repetitive firing in response to stimulation at three test currents (A) and to determine spike threshold (B). We examined the cells on the third day, and not later, to avoid more prolonged exposure to the drugs. […] Error bars indicate SEM, and the asterisks indicate significance (p<0.0001 in each case). […] C, Detection of nNOS mRNA in single SNs by RT-PCR. Fragments of appropriate lengths were amplified with primer sets for apnNOS, sensorin A, and the neuron-specific isoform of actin from five separate sets of samples from SNs in vivo (0) or after 16 hr in vitro. The size of the synthesized fragments detected by ethidium bromide staining on 2% agarose gels were identical with those predicted from the known sequences in the database. In addition, the PCR products were verified by DNA sequence analysis. Finally, there was no amplification in the absence of reverse transcriptase, indicating the RNA preparations were not contaminated by genomic DNA (bottom panel). Positions of molecular markers are indicated on the left. D, Effects of the NOS inhibitors on LTH. L-Thiocitrulline (50 μM) and L-NAME (1 mM) were used as described above. n, Number of SNs. The data were normalized to the average excitability of control cells in the same preparation. The asterisk indicates significance (p<0.001), comparing LTH with and without inhibitor by ANOVA and Dunnett's test. Error bars indicate SEM.
# Medium was changed every 2 d. Drugs were washed out 1 hr before electrophysiological tests.
# Before the start of each recording, the hemolymph was replaced with a 1:1 mixture of artificial seawater and culture medium (without hemolymph; pH 7.6). Standard techniques were used for intracellular stimulation and recording (Ambron et al., 1996). The soma spike threshold was measured with a standard series of 20 msec depolarizing pulses. Repetitive firing was quantified by counting the number of spikes evoked by a series of 2 sec depolarizing pulses at 1, 2, 3, 4, and 5 nA, or 1 sec depolarizing pulses at 2.5 times the current for the 20 msec threshold. Spike amplitude was measured from baseline to the peak of the action potential, and spike duration was the breadth of the action potential at one-half of its maximal height.
# To investigate whether the appearance of the LTH requires apPKG activity, the SNs were removed from the ganglion in the presence of either the soluble guanylyl cyclase (sGC) inhibitor ODQ, the PKG inhibitor Rp-8-pCPT-cGMPS, or the PKA inhibitor Rp-cAMPS. The latter was used because PKA has properties in common with PKG (Scott, 1991; Francis and Corbin, 1994) and has been implicated in various forms of synaptic plasticity in Aplysia SNs (Ghirardi et al., 1992; Byrne and Kandel, 1996; Bedi et al., 1998; Muller and Carew, 1998; Chain et al., 1999; Liao et al., 1999; Sutton and Carew, 2000; Antonov et al., 2003). The cells were subsequently allowed to regenerate in the presence of the inhibitors in vitro, and on the third day, their electrophysiological properties were compared with those of SNs that were removed from the same ganglia at the same time, but that had not been exposed to a drug. […] Neither spike broadening nor amplitude were evaluated in these experiments.
# Aplysia SNs [3] = experiment: as above; type: cell-based, Aplysia californica; conditions: inhibitor added to 2-d-cultured SN
# apPKG = experiment: In vitro kinase assay of recombinant apPKG (32P transfer from ATP to BPDEtide); type: biochemical, Aplysia; conditions: 100 nM 8-Br-cGMP, BPDEtide substrate
# Experimental: FIG. 2A-C. apPKG is a type-1 PKG. […] Activity caused by autophosphorylation was subtracted using a peptide control reaction (see Materials and Methods). Note that the kinase activity was inhibited in the presence of 10 μM PKG inhibitor Rp-8-pCPT-cGMPS (RP-G). B, Kinase activity of active recombinant apPKG (25 ng) and bovine PKG type-Iα (bPKG Iα (50 ng) in the presence of four type-I PKG peptide substrates: peptide A, RKISASGP (SEQ ID NO:21); B, RKISASEFDRPLR (SEQ ID NO:22; BPDEtide); and D, RKRSRAE (SEQ ID NO:23) H2Btide). Peptide C, QKRPRRKDTP (SEQ ID NO:24), is a type-II PKG substrate. C, apPKG phosphorylates recombinant VASP at serine-239. Purified recombinant VASP-GST (0.5 μg) was incubated with active apPKG (100 ng) or the recombinant bovine PKG (50 ng), or in the kinase buffer alone, at room temperature for 20 min. After SDS-PAGE, a Western blot was probed with an anti-phospho-VASP (Ser 239) (p-VASP 5239) antibody.
# These studies establish apPKG as a member of the soluble type-I family of PKGs.
# apMAPK [4] = test system: apMAPK
# Experimental: Top, Left, Twenty-five micrograms of a pleural ganglia lysate collected at the indicated times after p5-p9 nerve crush were resolved by SDS-PAGE, and a Western blot was probed with Ab pTpYmapk to detect active ERK-MAPKs. […] All of the values were normalized to levels of total apMAPK. […] Each of the following experiments (B-E) was repeated twice at least, and representative results are shown. […] Left, Pleural neurons were removed from a noninjured animal, a lysate was prepared, and 25 μg was incubated with 100 ng of active apPKG protein or with 1 μM 8-Br-cGMP in the presence or absence of 10 μM U0126. Right, Twenty-five micrograms of axoplasm was incubated with active apPKG as above. Active apMAPK was detected by immunoblotting with Ab pTpYmapk.
# ERK activity was assayed as described (Sung et al., 2001). Briefly, proteins and 500 μM ATP were incubated in kinase buffer for 20 min at room temperature. The reaction mixtures were resolved on 10% SDS polyacrylamide gels and subjected to Western blotting with antibody (Ab)pTpYmapk, AbpYmapk, AbpTmapk, or AbpElk1.
# PKG [5] = experiment: Blocking of PKG activity at the site of sciatic nerve injury in rat; type: in vivo; conditions: nerve injured in presence of inhibitor; four hours after injury
# Experimental: FIG. 9. Relative PKG activity at various positions of the sciatic nerve relative to point of injury, shown schematically above the graph.
# The experiment was carried out as follows. A rat was anesthetized using a standard protocol and the sciatic nerve was exposed and injured in either the absence or the presence of RP-G, or an inhibitor of PKA, Rp-8-pCPT-cAMPS, (“RP-A”). Four hours later, the nerve was sectioned as shown in the schematic above the graph in FIG. 9, and each segment was assayed for PKG activity. In the absence of inhibitor (black bars), active PKG had been transported toward the cell bodies and was enriched in P3.
# Aplysia SNs [6] = conditions: SNs exposed to drug in vitro
# Experimental: SNs were isolated from the pleural ganglia of 50-80 gm animals and were plated on poly-L-lysine-coated dishes containing L15 medium and 50% hemolymph (Dagan and Levitan, 1981; Glanzman etal., 1989). Cultures were maintained at 18° C. for up to 7 d. Medium was changed every 2 d. Drugs were washed out 1 hr before electrophysiological tests.
# apMAPK [7] = experiment: Axotomy-induced apMAPK nuclear translocation in SNs (D8 antibody immunostaining, confocal microscopy); type: cell-based, Aplysia; conditions: 10 μM, SNs in vitro; for nuclear staining of apMAPK: fixed on the third day
# Experimental: Equal amounts of Alexa Fluor 546-labeled BSA, apPKG, or ERK1 were microinjected into the cytoplasm of SNs after 2 d in vitro. The neurites were then severed with a fine needle to elicit an injury response, and 30 min later, the cells were examined by confocal microscopy. […] Scale bar, 20 μm. B, Rp-8-pCPT-cGMPs inhibits axotomy-induced apMAPK nuclear translocation. SNs untreated as controls, and those exposed to either 10 μM Rp-8-pCPT-cGMPs (Rp-cGMPs) or Rp-cAMPs for 2 d in vitro, were immunostained with D8 antibody to localize apMAPK. Top, Representative examples of 2 μm optical sections of control SNs and those exposed to Rp-8-pCPT-cGMPs or Rp-cAMPs. Scale bar, 20 μm. Bottom, Histogram of the mean value of nuclear MAPK immunoreactivity. The staining intensity was determined by a person who was blind to the treatment that the cells received. n, Number of cells for each treatment. Asterisk indicates significant difference from control (p<0.05 by ANOVA and Newman-Keuls tests).
# Ganglia, nerve, or cultured cells were fixed with 4% paraformaldehyde in PBS, pH 7.4. The primary antibody was diluted in TBS supplemented with 0.1-0.5% Triton X-100 in TBS and 5% goat serum, and incubated overnight at 4° C. After several washes, an Alexa Fluor 594- or 488-conjugated secondary antibody (Molecular Probes, Eugene, Oreg.) was applied for 1 hr at room temperature. Subsequently, the cells were visualized by confocal fluorescence microscopy (LSM510 confocalmicroscope; Zeiss, Oberkochen, Germany), and images were collected.
# The inability of apPKG to enter the nucleus of Aplysia SNs is consistent with the idea that it contributes to the induction of LTH by promoting the nuclear import of apMAPK. If so, then inhibiting the apPKG pathway should block the axotomy-induced entry of apMAPK into the nucleus. Therefore, SNs were exposed in vitro either to the PKG blocker, Rp-8-pCPTcGMPS, or the PKA blocker, Rp-cAMPS, under the conditions that induce LTH (FIG. 6A). On the third day, the cells were fixed, permeabilized, and exposed to antibody D8 to visualize ap-MAPK. […]
compound,measurement,setting,value
CCN(CC)CC.Nc1nc2c(nc(Sc3ccc(Cl)cc3)n2[C@@H]2O[C@@H]3COP(O)(=S)O[C@H]3[C@H]2O)c(=O)[nH]1 (stereo partly drawn) [Rp-8-[4-chlorophenyl)thio-cGMPS triethylamine],antinociception,rats,significant antinociception
balanol-7R,IC50,PKG [1],291 nM
"COC(=O)[C@@H](N)CCCN=C(N)N[N+](=O)[O-].Cl [L-NAME, N^G-nitro-L-arginine methyl ester hydochioride]",LTH (maximum firing relative to untreated controls),"Aplysia SNs [2]; 1 mM, SNs in vitro",reduced LTH
"O=c1onc2cnc3ccccc3n12 [ODQ, 1-H[1,2,4]oxadiazolo[4,3-a]quinoxalin-1-one]",decrease in spike threshold,Aplysia SNs [2],significantly prevented
same,increase in repetitive firing,Aplysia SNs [2],prevented; also recorded: significantly reduced
same,appearance of excitability,Aplysia SNs [3],Neither Rp-8-pCPT-cGMPS nor ODQ inhibited
O=C(NC1CNCCCC1OC(=O)c1cc(O)c(C(=O)c2c(O)cccc2C(=O)O)c(O)c1)c1ccc(O)cc1 (stereo not drawn) [balanol],IC50,PKG [1],1.6 nM
14″ decarboxy balanol,IC50,PKG [1],19 nM
Nc1nc2c(nc(Br)n2[C@@H]2O[C@@H]3COP(=O)(O)O[C@H]3[C@H]2O)c(=O)[nH]1 [8-Br-cGMP],activation of inactive apPKG,apPKG,activated
same,level of active apMAPK,apMAPK [4]; 1 μM 8-Br-cGMP added to 25 μg lysate,markedly enhanced
"NC(=S)NCCC[C@H](N)C(=O)O [L-Thiocitrulline, L-thiocitrulline]",maximum firing relative to untreated controls (LTH),"Aplysia SNs [2]; 50 μM, SNs in vitro",markedly reduced
"Nc1ncnc2c1nc(Sc1ccc(Cl)cc1)n2C1OC2COP(O)(=S)OC2C1O (stereo not drawn) [RP-A, Rp-8-pCPT-cAMPS]",PKG activity in sciatic nerve segments,PKG [5],did not change this pattern
N#CC(=C(/N)Sc1ccccc1N)/C(C#N)=C(\N)Sc1ccccc1N [U0126],extent or pattern of neurite growth,Aplysia SNs [6],severe growth defects
same,block of apMAPK activation by active apPKG or 8-Br-cGMP,apMAPK [4]; 10 μM U0126,not blocked
10″ deoxybalanol,IC50,PKG [1],31 nM
"Nc1nc2c(nc(Sc3ccc(Cl)cc3)n2C2OC3COP(O)(=S)OC3C2O)c(=O)[nH]1 (single isomer, unassigned) [Rp-8-pCPT-cGMPS, guanosine 3′,5′-cyclic monophosphorothioate, 8-(4-chlorophenylthio)-, Rp isomer]",kinase activity of purified inactive recombinant apPKG,apPKG; 10 μM inhibitor,inhibited
same,decrease in spike threshold,Aplysia SNs [2],prevented
same,increase in repetitive firing,Aplysia SNs [2],prevented
same,decrease in spike threshold,Aplysia SNs [2]; listed as Rp-cGMPS,significantly prevented
same,increase in repetitive firing,Aplysia SNs [2]; listed as Rp-cGMPS,significantly reduced
same,reduction in the level of apMAPK in the nucleus of the SNs,apMAPK [7],nearly threefold reduction
same,nuclear staining of apMAPK,apMAPK [7],dramatic reduction
same,PKG activity in sciatic nerve segments,PKG [5],abolished the activity
same,appearance of excitability,Aplysia SNs [3],Neither Rp-8-pCPT-cGMPS nor ODQ inhibited
"Nc1ncnc2c1ncn2[C@@H]1O[C@@H]2COP(O)(=S)O[C@H]2[C@H]1O (single isomer, unassigned) [Rp-cAMPS, adenosine 3′,5′-cyclic monophosphorothioate, Rp isomer]",decrease in spike threshold,Aplysia SNs [2],no significant effect; also recorded: not significant
same,increase in repetitive firing,Aplysia SNs [2],no significant effect
same,nuclear staining of apMAPK,apMAPK [7],same levels
